Measurements reported in patent publication US20230391796A1, “GLYCOSIDASE INHIBITORS AND USES THEREOF” (UNIVERSIDAD DE SEVILLA (US) -UNIVERSITY OF SEVILLE (US), priority 2020, published 2023).
Counter-ions that a name gives are not always drawn.

Key:
[1] = In vivo pharmacokinetics, plasma and brain concentrations; set-up: species or system C57BL/6 mice; conditions: 3 mg/kg single dose
Description: Mean plasma concentration (ng/mL) of compound 4 in C57BL/6 mice after 3 mg/kg i.v. administration.
Mean brain concentration (ng/mL) of 4 in C57BL/6 mice after 3 mg/kg i.v. administration
Assay for Determination of the in vivo Pharmacokinetics.
The pharmacokinetic profiles of the compounds to be tested were evaluated in vivo in C57BL/6 mice (n=14) following a 3 mg/kg […] dose.

[2] = target: β-N-acetylglucosaminidase (from bovine kidney); assay: Inhibition assay against commercial β-N-acetylglucosaminidase (bovine kidney), p-nitrophenyl N-acetyl-β-D-glucosaminide substrate; assay type: biochemical; conditions: pH 5.5, 37° C.; average of three determinations ± s.e.m.; NI = no inhibition detected at 200 μM; read-out: Bovine kidney Hex
Description: (§1) Inhibition Assays Against Commercial β-N-acetylglucosaminidases
(§2) Inhibition constant (Ki) values were determined by spectrophotometrically measuring the residual hydrolytic activities of the glycosidases against p-nitrophenyl N-acetyl-β-D-glucosaminide. […] Each assay was performed in phosphate-citrate buffer and the reactions were initiated by addition of the enzyme to a solution of the substrate in the absence or presence of various inhibitor concentrations. The mixture was incubated for 10-30 min at 37° C. and the reaction was quenched by addition of 1 M Na2CO3. Reaction times were appropriate to obtain 10-20% conversion of the substrate in order to achieve linear rates. The absorbance of the resulting mixture was determined at 405 nm. Approximate values of Ki were determined using a fixed concentration of substrate (around the Km value for the different glycosidases) and various inhibitor concentrations. Full Ki determinations and enzyme inhibition mode were determined from the slope of Lineweaver-Burk plots and double reciprocal analysis using a Microsoft Office Excel 2007 program.

[3] = target: T1, hOGA (Homo sapiens, UniProt O60502); assay: Inhibition assay against hOGA, resorufin N-acetyl-β-D-glucosaminide fluorescence; assay type: biochemical; conditions: 0.2 nM hOGA, 25 μM substrate, pH 7.1; Morrison Ki
T1 sequence (O60502 1-916): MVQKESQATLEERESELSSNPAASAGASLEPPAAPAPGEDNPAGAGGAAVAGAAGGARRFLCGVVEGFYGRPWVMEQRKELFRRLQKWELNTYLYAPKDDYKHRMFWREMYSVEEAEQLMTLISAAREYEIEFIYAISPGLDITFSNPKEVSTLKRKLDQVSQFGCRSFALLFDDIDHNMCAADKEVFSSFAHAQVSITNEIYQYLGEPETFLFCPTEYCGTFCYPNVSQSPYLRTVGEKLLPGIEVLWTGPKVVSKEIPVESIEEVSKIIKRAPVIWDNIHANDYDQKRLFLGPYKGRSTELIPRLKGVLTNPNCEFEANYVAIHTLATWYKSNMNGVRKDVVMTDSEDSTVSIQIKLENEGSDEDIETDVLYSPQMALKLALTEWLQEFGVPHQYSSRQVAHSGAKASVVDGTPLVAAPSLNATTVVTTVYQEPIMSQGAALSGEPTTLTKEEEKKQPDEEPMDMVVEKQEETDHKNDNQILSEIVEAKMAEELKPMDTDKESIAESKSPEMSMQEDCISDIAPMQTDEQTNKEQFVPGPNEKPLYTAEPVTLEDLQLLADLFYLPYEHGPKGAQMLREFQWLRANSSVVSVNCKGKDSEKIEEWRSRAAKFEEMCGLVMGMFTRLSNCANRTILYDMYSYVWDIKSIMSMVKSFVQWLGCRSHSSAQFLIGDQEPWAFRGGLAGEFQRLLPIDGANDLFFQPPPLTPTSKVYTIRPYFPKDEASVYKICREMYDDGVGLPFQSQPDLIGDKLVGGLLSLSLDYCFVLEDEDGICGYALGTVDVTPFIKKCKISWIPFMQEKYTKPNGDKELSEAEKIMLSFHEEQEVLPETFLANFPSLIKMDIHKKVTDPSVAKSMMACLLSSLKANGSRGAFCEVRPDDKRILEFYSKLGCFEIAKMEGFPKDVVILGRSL
Description: Inhibition Assays Against hOGA
Km=25 μM was measured with these conditions. Inhibition assays were run at 0.2 nM [hOGA] in the same buffer, in the presence or absence of various concentrations of inhibitors and at a fixed substrate concentration of 25 μM and 1% DMSO. First, inhibitor was serially diluted to the desired range of concentrations in 2% DMSO buffer. Next, 50 μL of inhibitor solutions at various concentrations in 2% DMSO Buffer was added to 50 μL of 0.8 nM enzyme and allowed to incubate at 25° C. for 5 minutes. 100 uL of 50 μM and 1% DMSO substrate was then added and reaction mixture was immediately mixed and aliquoted in 45 μL triplicates to a CORNING 384 well black plate. Fluorescence signal was measured continuously for 20 minutes at 37° C. in a BioTek Neo 2 Plate reader set at excitation and emission wavelengths of 572 and 610 nm, respectively. Max reaction rates for all inhibitor concentrations were calculated within Gen5 BioTek reader software. % Activity was subsequently calculated for each inhibitor concentration against the max reaction rate of uninhibited hOGA. GraphPad Prism 2016 was used to approximate the Morrison Ki values for each inhibitor.

[4] = target: β-N-acetylglucosaminidase (from human placenta); assay: Inhibition assay against commercial β-N-acetylglucosaminidase (human placenta), p-nitrophenyl N-acetyl-β-D-glucosaminide substrate; assay type: biochemical; conditions: pH 5.5, 37° C.; average of three determinations ± s.e.m.; read-out: Human placenta Hex
Description: as §1, §2

[5] = target: T2, Recombinant Human Hexosaminidase A (HexA) (Homo sapiens, UniProt P06865); assay: Inhibition assay against rhHexA, 4-methylumbelliferone-N-acetyl-β-D-glucosaminide fluorescence; assay type: biochemical; conditions: IC50 for lysosomal hHexA; NI = no inhibition detected at 200 μM
T2 construct: purchased R&D Systems 6237-GH-020
T2 sequence (P06865 89-529): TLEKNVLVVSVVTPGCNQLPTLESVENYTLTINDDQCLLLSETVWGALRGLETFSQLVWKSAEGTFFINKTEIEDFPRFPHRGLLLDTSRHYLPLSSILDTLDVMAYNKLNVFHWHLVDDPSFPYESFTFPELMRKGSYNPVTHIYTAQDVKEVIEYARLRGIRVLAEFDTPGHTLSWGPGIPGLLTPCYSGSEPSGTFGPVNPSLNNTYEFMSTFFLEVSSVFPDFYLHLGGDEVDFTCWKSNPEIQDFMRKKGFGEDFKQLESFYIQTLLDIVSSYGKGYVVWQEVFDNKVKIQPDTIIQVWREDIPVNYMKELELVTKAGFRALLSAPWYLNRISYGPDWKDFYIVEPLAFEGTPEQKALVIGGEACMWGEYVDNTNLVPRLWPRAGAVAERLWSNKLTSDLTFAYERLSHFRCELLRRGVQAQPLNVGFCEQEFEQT
Description: Inhibition Assays Against rhHexA
Human Hexosaminidase A (HexA) enzyme, purchased from R&D Systems (cat# 6237-GH-020), were determined by measuring the fluorescent signal corresponding to the rate of hydrolytic activity against the commercially available artificial substrate, 4-Methylumbelliferone-N-acetyl-β-D-glucosaminide. HexA activity assays were performed in a buffer of 100 mM sodium citrate, 250 NaCl, pH 4.5 and 1.0 nM [HexA], then stopped after 20 minutes with a solution of 1.0 M Tris, pH 9.5 to enhance fluorescent signal. Preliminary experiments have shown that reaction rates are linear for 20 minutes after substrate addition, and that 1.0 M Tris at pH 9.5 is sufficient for stopping activity, as signal is stable after stopping. Inhibition assays were run in the presence or absence of various concentrations of inhibitors and at a fixed substrate concentration of 100 μM and 1% DMSO. First, inhibitor was serially diluted to the desired range of concentrations in 2% DMSO buffer. Next, 25 μL, of inhibitor solutions at various concentrations in 2% DMSO Buffer was added to 25 μL, of 4.0 nM enzyme and allowed to incubate at 25° C. for 5 minutes. 50 μL of 200 μM and 1% DMSO substrate was then added and allowed to react for 20 minutes. 100 μL of stop solution was added to reaction mixture, and immediately mixed and aliquoted in 45 μL triplicates to a CORNING 384 well black plate. Fluorescence signal was measured in a BioTek Neo 2 Plate reader set at excitation and emission wavelengths of 355 and 450 nm, respectively. % Activity was subsequently calculated for each inhibitor concentration against the fluorescence signal of uninhibited HexA. […]

[6] = target: β-N-acetylglucosaminidase (from jack bean); assay: Inhibition assay against commercial β-N-acetylglucosaminidase (jack bean), p-nitrophenyl N-acetyl-β-D-glucosaminide substrate; assay type: biochemical; conditions: pH 5.5, 37° C.; average of three determinations ± s.e.m.; NI = no inhibition detected at 200 μM; read-out: Jack beans Hex
Description: as §1, §2

brain concentration, start of the decrease (FIG. 2) ([1]; homogenized brain, initial value): 26 ng/g
plasma concentration, start of the decrease (FIG. 1) ([1]; plasma, initial value): 1100 ng/mL
concentration at 24 h ([1]; C57BL/6, mouse, intravenous, homogenized brain, 24 h, read-out: brain concentration after 24 h (FIG. 2)): 7.5 ng/g
concentration at 12 h ([1]; C57BL/6, mouse, intravenous, plasma, 12 h, read-out: plasma concentration after 12 h (FIG. 1)): 0.78 ng/mL
Ki [2]: 460 ± 30 nM
Ki [3]: 2.99 nM
Ki [4]: 420 ± 30 nM
IC50 [5]: 560 nM
Ki [6]: 750 ± 40 nM
Compound: CC(=O)N[C@H]1CN2/C(=N/Cc3ccccc3)SC[C@@H]2[C@@H](O)[C@@H]1O [Compound 4, 2-Acetamido-5-N,6-S-(N′-benzyliminomethylidene)-1,2-dideoxy-6-thionojirimycin Hydrochloride]
